Source: patent publication US20230167103A1 (Bayer Aktiengesellschaft, priority 2020, published 2023)

molecular target: T1, human DGKζ (Homo sapiens, UniProt Q13574); test: Human DGKζ kinase activity inhibition assay (ADP-Glo); type: biochemical; settings: example compounds; recombinant full-length human DGKζ, 1,2-dioleoyl-sn-glycerol 7 μM, ATP 55 μM, 20 min at 22° C.; read-out: IC50 values of examples in in vitro human DGKζ kinase activity inhibition assays
T1 construct: made in house; host or cells: Sf9 insect cells, baculovirus
Procedure, shortened: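 Enzyme was C-terminally FLAG-tagged full-length human DGKζ from baculovirus-infected insect cells, typically about 0.1 nM, with 1,2-dioleoyl-sn-glycerol in octyl-β-D-glucopyranoside micelles as substrate. ADP formed was detected by ADP-Glo luminescence; data normalised to no-inhibitor (0%) and no-enzyme (100%) controls.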

T1 sequence (Q13574 with tags, fused parts or gaps): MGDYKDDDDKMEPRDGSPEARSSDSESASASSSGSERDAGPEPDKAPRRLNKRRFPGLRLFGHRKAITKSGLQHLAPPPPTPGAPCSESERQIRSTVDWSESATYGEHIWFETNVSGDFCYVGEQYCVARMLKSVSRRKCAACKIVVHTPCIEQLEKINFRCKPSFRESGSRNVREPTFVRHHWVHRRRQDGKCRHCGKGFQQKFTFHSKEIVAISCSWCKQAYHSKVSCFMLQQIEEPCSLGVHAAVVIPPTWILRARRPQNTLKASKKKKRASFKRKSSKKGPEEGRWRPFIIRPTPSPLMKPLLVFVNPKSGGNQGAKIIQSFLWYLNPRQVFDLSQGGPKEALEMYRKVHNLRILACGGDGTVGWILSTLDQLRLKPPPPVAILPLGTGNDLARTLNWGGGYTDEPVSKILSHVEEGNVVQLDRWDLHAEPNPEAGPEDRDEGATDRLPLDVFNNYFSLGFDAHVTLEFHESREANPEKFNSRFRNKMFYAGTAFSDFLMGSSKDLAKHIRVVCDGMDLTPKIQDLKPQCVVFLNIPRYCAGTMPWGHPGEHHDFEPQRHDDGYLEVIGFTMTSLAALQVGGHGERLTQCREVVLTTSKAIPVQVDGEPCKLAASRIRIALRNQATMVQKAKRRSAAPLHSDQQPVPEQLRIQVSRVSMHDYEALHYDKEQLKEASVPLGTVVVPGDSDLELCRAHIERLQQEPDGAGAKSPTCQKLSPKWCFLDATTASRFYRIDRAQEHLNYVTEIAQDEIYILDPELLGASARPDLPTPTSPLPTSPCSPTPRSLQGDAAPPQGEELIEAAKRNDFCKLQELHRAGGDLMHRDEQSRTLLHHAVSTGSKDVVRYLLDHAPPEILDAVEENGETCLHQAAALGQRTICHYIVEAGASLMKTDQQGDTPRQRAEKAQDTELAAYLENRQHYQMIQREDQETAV

Row | Compound | IC50
1 | CC(C(N)=O)N(c1ccc(F)cc1)c1nc(N)c(C(=O)c2cc(C(=O)N3CCC3)no2)s1 (racemic) [Example 18, rac-2-(N-[4-amino-5-[3-(azetidine-1-carbonyl)isoxazole-5-carbonyl]thiazol-2-yl]-4-fluoro-anilino)propanamide] | 492 nM
2 | CC(C(N)=O)N(c1ccc(F)cc1)c1nc(N)c(C(=O)c2cc(C(=O)NCC(F)F)no2)s1 (racemic) [Example 17, rac-5-[4-amino-2-(N-(2-amino-1-methyl-2-oxo-ethyl)-4-fluoro-anilino)thiazole-5-carbonyl]-N-(2,2-difluoroethyl)isoxazole-3-carboxamide] | 699 nM
3 | CC(C)Oc1cc(C(=O)c2sc(N(c3ccc(F)cc3)C(C)C(N)=O)nc2N)on1 (racemic) [Example 82, rac-2-(N-[4-amino-5-(3-isopropoxyisoxazole-5-carbonyl)thiazol-2-yl]-4-fluoro-anilino)propanamide] | 49 nM
4 | CC(C(N)=O)N(c1ccc(F)cc1)c1nc(N)c(C(=O)c2cc(OC(F)F)no2)s1 (racemic) [Example 48, rac-2-(N-[4-amino-5-[3-(difluoromethoxy)isoxazole-5-carbonyl]thiazol-2-yl]-4-fluoro-anilino)propanamide] | 73 nM
5 | CC(C(N)=O)N(c1ccc(F)cc1)c1nc(N)c(C(=O)c2cc(-c3ccccc3)no2)s1 (racemic) [Example 3, rac-2-(N-[4-amino-5-(3-phenylisoxazole-5-carbonyl)thiazol-2-yl]-4-fluoro-anilino)propanamide] | 104 nM
6 | CC(C(N)=O)N(c1ccc(F)cc1)c1nc(N)c(C(=O)c2cc(C(=O)N[C@H]3C[C@H](F)C3)no2)s1 (mixture of isomers) [Example 42, 5-[4-amino-2-(N-(2-amino-1-methyl-2-oxo-ethyl)-4-fluoro-anilino)thiazole-5-carbonyl]-N-(trans-3-fluorocyclobutyl)isoxazole-3-carboxamide] | 146 nM
7 | CC(C(N)=O)N(c1ccc(F)c(F)c1)c1nc(N)c(C(=O)c2cc(C(=O)NC3CCCC3)no2)s1 (racemic) [Example 46, rac-5-[4-amino-2-(N-(2-amino-1-methyl-2-oxo-ethyl)-3,4-difluoro-anilino)thiazole-5-carbonyl]-N-cyclopentyl-isoxazole-3-carboxamide] | 77 nM
8 | CC(C(N)=O)N(c1ccc(F)cc1)c1nc(N)c(C(=O)c2cc(C(=O)NCCOC(C)(C)C)no2)s1 (racemic) [Example 26, rac-5-[4-amino-2-(N-(2-amino-1-methyl-2-oxo-ethyl)-4-fluoro-anilino)thiazole-5-carbonyl]-N-(2-tert-butoxyethyl)isoxazole-3-carboxamide] | 138 nM
9 | CC(C(N)=O)N(c1ccc(F)c(F)c1)c1nc(N)c(C(=O)c2cc(C(=O)NC3CCCC3)no2)s1 (single isomer, unassigned) [Example 46.2, 5-[4-amino-2-(N-(2-amino-1-methyl-2-oxo-ethyl)-3,4-difluoro-anilino)thiazole-5-carbonyl]-N-cyclopentyl-isoxazole-3-carboxamide] | 2280 nM
10 | CC(C(N)=O)N(c1ccc(F)c(F)c1)c1nc(N)c(C(=O)c2cc(C(=O)NC3CC(F)(F)C3)no2)s1 (racemic) [Example 45, rac-5-[4-amino-2-(N-(2-amino-1-methyl-2-oxo-ethyl)-3,4-difluoro-anilino)thiazole-5-carbonyl]-N-(3,3-difluorocyclobutyl)isoxazole-3-carboxamide] | 53 nM
11 | CC(C(N)=O)N(c1ccc(F)cc1)c1nc(N)c(C(=O)c2cc(C(=O)NC3CC(F)(F)C3)no2)s1 (single isomer, unassigned) [Example 32.2, 5-[4-amino-2-(N-(2-amino-1-methyl-2-oxo-ethyl)-4-fluoro-anilino)thiazole-5-carbonyl]-N-(3,3-difluorocyclobutyl)isoxazole-3-carboxamide] | 897 nM
12 | CC(C(N)=O)N(c1ccc(F)cc1)c1nc(N)c(C(=O)c2cc(C(=O)NC34CC(C3)C4)no2)s1 (racemic) [Example 31, rac-5-[4-amino-2-(N-(2-amino-1-methyl-2-oxo-ethyl)-4-fluoro-anilino)thiazole-5-carbonyl]-N-(1-bicyclo[1.1.1]pentanyl)isoxazole-3-carboxamide] | 193 nM
13 | CC(C(N)=O)N(c1ccc(F)cc1)c1nc(N)c(C(=O)c2cc(-c3ccc(Cl)cc3)no2)s1 (racemic) [Example 5, rac-2-(N-[4-amino-5-[3-(4-chlorophenyl)isoxazole-5-carbonyl]thiazol-2-yl]-4-fluoro-anilino)propanamide] | 67 nM
14 | CC(NC(=O)c1cc(C(=O)c2sc(N(c3ccc(F)cc3)C(C)C(N)=O)nc2N)on1)C(F)F (racemic) [Example 41, 5-[4-amino-2-(N-(2-amino-1-methyl-2-oxo-ethyl)-4-fluoro-anilino)thiazole-5-carbonyl]-N-(2,2-difluoro-1-methyl-ethyl)isoxazole-3-carboxamide] | 134 nM
15 | CC(C(N)=O)N(c1ccc(F)cc1)c1nc(N)c(C(=O)c2cc(Br)no2)s1 (racemic) [Example 6, rac-2-(N-[4-amino-5-(3-bromoisoxazole-5-carbonyl)thiazol-2-yl]-4-fluoro-anilino)propanamide] | 123 nM
16 | CC(C(N)=O)N(c1ccc(F)cc1)c1nc(N)c(C(=O)c2cc(-c3ccccn3)no2)s1 (racemic) [Example 68, rac-2-(N-[4-amino-5-[3-(2-pyridypisoxazole-5-carbonyl]thiazol-2-yl]-4-fluoro-anilino)propanamide] | 402 nM
17 | CC(C(N)=O)N(c1ccc(F)cc1)c1nc(N)c(C(=O)c2cc(C(=O)NCCOC(F)(F)F)no2)s1 (racemic) [Example 29, rac-5-[4-amino-2-(N-(2-amino-1-methyl-2-oxo-ethyl)-4-fluoro-anilino)thiazole-5-carbonyl]-N-[2-(trifluoromethoxy)ethyl]isoxazole-3-carboxamide] | 97 nM
18 | CC(C(N)=O)N(c1ccc(F)cc1)c1nc(N)c(C(=O)c2cc(C(=O)Nc3cccnc3)no2)s1 (racemic) [Example 20, rac-5-[4-amino-2-(N-(2-amino-1-methyl-2-oxo-ethyl)-4-fluoro-anilino)thiazole-5-carbonyl]-N-(3-pyridyl)isoxazole-3-carboxamide] | 300 nM

Now those with a lower IC50, led by results:

Row | IC50 | Compound
19 | 31 nM | CC(C(N)=O)N(c1ccc(F)cc1)c1nc(N)c(C(=O)c2cc(OCC3CCC3)no2)s1 (racemic) [Example 80, rac-2-(N-[4-amino-5-[3-(cyclobutylmethoxy)isoxazole-5-carbonyl]thiazol-2-yl]-4-fluoro-anilino)propanamide]
20 | 29 nM | CC(C(N)=O)N(c1ccc(F)cc1)c1nc(N)c(C(=O)c2cc(C(=O)NC3(C)CCC3)no2)s1 (single isomer, unassigned) [Example 30.1, 5-[4-amino-2-(N-(2-amino-1-methyl-2-oxo-ethyl)-4-fluoro-anilino)thiazole-5-carbonyl]-N-(1-methylcyclobutyl)isoxazole-3-carboxamide]
21 | 29 nM | CC(C(N)=O)N(c1ccc(F)cc1)c1nc(N)c(C(=O)c2cc(COC(=O)Nc3ccccc3)no2)s1 (racemic) [Example 66, rac-[5-[4-amino-2-(N-(2-amino-1-methyl-2-oxo-ethyl)-4-fluoro-anilino)thiazole-5-carbonyl]isoxazol-3-yl]methyl N-phenylcarbamate]
22 | 27 nM | CC(C(N)=O)N(c1ccc(F)cc1)c1nc(N)c(C(=O)c2cc(OCc3ccccc3)no2)s1 (racemic) [Example 2, rac-2-(N-[4-amino-5-(3-benzyloxyisoxazole-5-carbonyl)thiazol-2-yl]-4-fluoro-anilino)propanamide]
23 | 27 nM | CC(C(N)=O)N(c1ccc(F)c(F)c1)c1nc(N)c(C(=O)c2cc(C(=O)NC3CCCC3)no2)s1 (single isomer, unassigned) [Example 46.1, 5-[4-amino-2-(N-(2-amino-1-methyl-2-oxo-ethyl)-3,4-difluoro-anilino)thiazole-5-carbonyl]-N-cyclopentyl-isoxazole-3-carboxamide]
24 | 25 nM | CC(C(N)=O)N(c1ccc(F)cc1)c1nc(N)c(C(=O)c2nc(C(C)(C)C)no2)s1 (racemic) [Example 53, rac-2-(N-[4-amino-5-(3-tert-butyl-1,2,4-oxadiazole-5-carbonyl)thiazol-2-yl]-4-fluoro-anilino)propanamide]
25 | 20 nM | CC(C(N)=O)N(c1ccc(F)c(F)c1)c1nc(N)c(C(=O)c2cc(C(=O)NC3CC(F)(F)C3)no2)s1 (single isomer, unassigned) [Example 45.1, 5-[4-amino-2-(N-(2-amino-1-methyl-2-oxo-ethyl)-3,4-difluoro-anilino)thiazole-5-carbonyl]-N-(3,3-difluorocyclobutyl)isoxazole-3-carboxamide]
26 | 19 nM | CC(C(N)=O)N(c1ccc(F)c(F)c1)c1nc(N)c(C(=O)c2cc(C(=O)NC3(C)CCC3)no2)s1 (single isomer, unassigned) [Example 44.1, 5-[4-amino-2-(N-(2-amino-1-methyl-2-oxo-ethyl)-3,4-difluoro-anilino)thiazole-5-carbonyl]-N-(1-methylcyclobutyl)isoxazole-3-carboxamide]
27 | 17 nM | CC(C(N)=O)N(c1ccc(F)cc1)c1nc(N)c(C(=O)c2cc(OC3CCC(F)(F)CC3)no2)s1 (racemic) [Example 81, rac-2-(N-[4-Amino-5-[3-(4,4-difluorocyclohexoxy)isoxazole-5-carbonyl]thiazol-2-yl]-4-fluoro-anilino)propanamide]
